pKi: −log10 of the molar value. Structures can show the parent of a compound that is named as a salt.
Legend:
[1] = biological target: T1, cloned human H3 receptors (Homo sapiens, UniProt Q9Y5N1); assay: H3 Receptor Binding (Human); details: cloned human H3 receptors stably expressed in SK-N-MC cells; average of the results obtained; read-out: Human H3 Ki
T1 construct: expressed in transfected cells
Protocol: H3 Receptor Binding (Human)
Binding of compounds to the cloned human H3 receptors, stably expressed in SK-N-MC cells, was performed as described by Barbier, A. J. et al. (Br. J. Pharmacol. 2004, 143(5), 649-661).

[2] = biological target: T2, Rat H3 (Rattus norvegicus, UniProt Q9QYN8); assay: H3 Receptor Binding (Rat); details: rat brain membranes without cerebellum, 0.8 nM N-[3H]-α-methylhistamine, 60 min at 25° C.; average of the results obtained
Protocol: H3 Receptor Binding (Rat)
A rat brain without cerebellum (Zivic Laboratories Inc., Pittsburgh, Pa.) was homogenized in 50 mM Tris-HCl/5 mM EDTA and centrifuged at 1,000 rpm for 5 min. The supernatant was removed and recentrifuged at 15,000 rpm for 30 min. Pellets were rehomogenized in 50 mM Tris/5 mM EDTA (pH 7.4). Membranes were incubated with 0.8 nM N-[^3H]-α-methylhistamine plus/minus test compounds for 60 min at 25° C. and harvested by rapid filtration over GF/C glass fiber filters (pretreated with 0.3% polyethylenimine) followed by four washes with buffer. Nonspecific binding was defined in the presence of 100 μM histamine.
Target sequence in this assay (Q9QYN8 1-397 isoform Q9QYN8-3): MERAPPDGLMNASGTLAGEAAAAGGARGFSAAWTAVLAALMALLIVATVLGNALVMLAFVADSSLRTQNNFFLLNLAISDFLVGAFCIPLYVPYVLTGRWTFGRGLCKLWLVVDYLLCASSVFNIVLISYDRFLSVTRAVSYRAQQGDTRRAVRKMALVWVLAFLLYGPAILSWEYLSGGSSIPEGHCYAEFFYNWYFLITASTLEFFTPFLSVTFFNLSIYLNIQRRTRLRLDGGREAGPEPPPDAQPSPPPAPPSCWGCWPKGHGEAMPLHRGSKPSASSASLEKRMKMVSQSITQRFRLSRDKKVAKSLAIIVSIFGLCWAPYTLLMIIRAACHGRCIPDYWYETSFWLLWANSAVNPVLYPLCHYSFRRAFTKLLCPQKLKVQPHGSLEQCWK

[3] = biological target: T3, human H3 receptor (Homo sapiens, UniProt Q9Y5N1); assay: Cyclic AMP Accumulation (human H3 receptor); assay type: cell-based
T3 construct: expressed in transfected cells; host or cells: SK-N-MC sublines with a reporter construct
T3 sequence (Q9Y5N1 whole entry): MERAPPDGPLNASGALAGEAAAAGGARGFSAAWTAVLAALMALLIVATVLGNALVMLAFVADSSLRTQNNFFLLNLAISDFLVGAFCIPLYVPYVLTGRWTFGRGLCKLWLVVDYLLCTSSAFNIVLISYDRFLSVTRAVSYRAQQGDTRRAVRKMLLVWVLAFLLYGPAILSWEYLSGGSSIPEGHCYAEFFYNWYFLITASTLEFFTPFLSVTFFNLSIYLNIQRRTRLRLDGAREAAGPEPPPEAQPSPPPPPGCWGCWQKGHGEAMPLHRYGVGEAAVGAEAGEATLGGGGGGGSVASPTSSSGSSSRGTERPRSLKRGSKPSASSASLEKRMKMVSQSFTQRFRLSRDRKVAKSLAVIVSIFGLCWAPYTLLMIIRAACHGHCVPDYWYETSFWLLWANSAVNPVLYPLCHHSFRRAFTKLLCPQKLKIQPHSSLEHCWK
Text: (§1) Sublines of SK-N-MC cells were created that expressed a reporter construct and either the human or rat H3 receptor.

[4] = biological target: T2, Rat H3; assay: cell-based
Text: as §1
Target sequence in this assay (Q9QYN8 whole entry): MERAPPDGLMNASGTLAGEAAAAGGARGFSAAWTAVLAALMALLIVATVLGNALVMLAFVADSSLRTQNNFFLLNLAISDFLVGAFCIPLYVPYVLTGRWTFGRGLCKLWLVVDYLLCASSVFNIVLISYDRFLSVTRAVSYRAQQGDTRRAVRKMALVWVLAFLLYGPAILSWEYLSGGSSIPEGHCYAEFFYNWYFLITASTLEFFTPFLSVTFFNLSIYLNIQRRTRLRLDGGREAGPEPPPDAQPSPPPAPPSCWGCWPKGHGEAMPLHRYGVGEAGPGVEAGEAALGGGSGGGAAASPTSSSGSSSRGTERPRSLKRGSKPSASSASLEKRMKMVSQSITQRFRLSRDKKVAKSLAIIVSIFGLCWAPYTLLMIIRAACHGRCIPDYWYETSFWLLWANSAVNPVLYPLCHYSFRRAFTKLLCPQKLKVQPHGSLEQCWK

T1 sequence (Q9Y5N1 whole entry): as the sequence (Q9Y5N1 whole entry) above

Compound | pKi [1] | pKi [2] | Kb [3] | Kb [4]
CSc1ccc(Oc2ccc(C(=O)N3CCCN(C4CCC4)CC3)cn2)cc1C [Example 40, (4-Cyclobutyl-[1,4]diazepan-1-yl)-[6-(3-methyl-4-methylsulfanyl-phenoxy)-pyridin-3-yl]-methanone] | 9.00 | 7.44 | 1.32 nM | 13.5 nM
O=C(c1ccc(Oc2ccc(Cl)c(Cl)c2)cn1)N1CCCN(C2CCC2)CC1 [Example 51, (4-Cyclobutyl-[1,4]diazepan-1-yl)-[5-(3,4-dichloro-phenoxy)-pyridin-2-yl]-methanone trifluoroacetic acid salt] | 8.70 | 7.22 | 2.29 nM | 21.9 nM
N#Cc1nc(C(=O)N2CCCN(C3CC3)CC2)ccc1Oc1cccnc1 [Example 56, 6-(4-Cyclopropyl-[1,4]diazepane-1-carbonyl)-3-(pyridin-3-yloxy)-pyridine-2-carbonitrile hydrochloride salt] | 8.30 | 6.75 | 2.34 nM | 13.8 nM
Cc1ccccc1Oc1ccc(C(=O)N2CCCN(C3CCC3)CC2)cn1 [Example 102, (4-Cyclobutyl-[1,4]diazepan-1-yl)-(6-o-tolyloxy-pyridin-3-yl)-methanone] | 9.00 | 7.77 | 0.2 nM | 1.2 nM

Source: patent publication US8940731B2, “Substituted pyridyl amide compounds as modulators of the histamine H3 receptor” (Janssen Pharmaceutica NV, priority 2006, dated 2015)
